From patent publication US10202361B2, “Pyridazinones as herbicides” (E I DU PONT DE NEMOURS AND COMPANY, priority 2014, dated 2019)
Read-outs that look alike come from different tables or passages of the source.

Tests used:
Format in all cases: in vivo
[1] = system: pigweed (Amaranthus retroflexus); assay: Test A pre-/postemergence greenhouse herbicide test; conditions: Amaranthus retroflexus, 240 h, 0 to 100 scale (0 no effect, 100 complete control), approx. 10 d, read-out: Plant response rating, Pigweed; for pest or weed control at 125 g/ha: 125 g ai/ha; for pest or weed control at 500 g/ha: 500 g ai/ha
Method in brief: (§1)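 Seeds sown in loam–sand blend received a directed preemergence soil spray; postemergence spray was applied at the same time to plants 2–10 cm tall at one- to two-leaf stage. Compounds were in non-phytotoxic solvent with surfactant. Visual injury versus untreated controls after ~10 d in greenhouse, 0–100 scale (100 = complete control).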

[2] = system: crabgrass, Large (large crabgrass, Digitaria sanguinalis); assay: as above; conditions: Digitaria sanguinalis, 240 h, 0 to 100 scale (0 no effect, 100 complete control), approx. 10 d, read-out: Plant response rating, Crabgrass, Large; for pest or weed control at 125 g/ha: 125 g ai/ha; for pest or weed control at 500 g/ha: 500 g ai/ha
Method in brief: as §1

[3] = system: wheat (Triticum aestivum); assay: as above; conditions: Triticum aestivum, 240 h, 0 to 100 scale (0 no effect, 100 complete control), approx. 10 d, read-out: Plant response rating, Wheat; for plant injury at 125 g/ha: 125 g ai/ha; for plant injury at 500 g/ha: 500 g ai/ha
Method in brief: as §1

[4] = system: crabgrass, Large (large crabgrass, Digitaria sanguinalis); assay: Test C pre-/postemergence greenhouse herbicide test; conditions: Preemergence; for pest or weed control at 31 g/ha: 31 g ai/ha; for pest or weed control at 62 g/ha: 62 g ai/ha; for Plant response rating, Crabgrass, Large: visual rating on scale 0 (no effect) to 100 (complete control), 13 to 15 d
Method in brief: (§2)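 Visual ratings, 0 = no effect, 100 = complete control, vs untreated controls at 13–15 d. Pre: seeds in loam/sand. Post: 2–18 cm plants (1–4 leaf), peat/vermiculite mix. Surfactant-containing solvent formulation; greenhouse.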

corn (Zea mays) = assay: as above; conditions: Preemergence; for Plant response rating, Corn: visual rating on scale 0 (no effect) to 100 (complete control), 13 to 15 d; for plant injury at 31 g/ha: 31 g ai/ha; for plant injury at 62 g/ha: 62 g ai/ha
Method in brief: as §2

[5] = system: barnyardgrass (Echinochloa crus-galli); assay: as above; conditions: Preemergence; for Plant response rating: Barnyardgrass; for Plant response rating, Barnyardgrass: visual rating on scale 0 (no effect) to 100 (complete control), 13 to 15 d
Method in brief: as §2

[6] = system: blackgrass (Alopecurus myosuroides); assay: as above; conditions: Preemergence; for pest or weed control at 31 g/ha: 31 g ai/ha; for pest or weed control at 62 g/ha: 62 g ai/ha; for Plant response rating, Blackgrass: visual rating on scale 0 (no effect) to 100 (complete control), 13 to 15 d
Method in brief: as §2

[7] = system: wheat (winter wheat, Triticum aestivum); assay: as above; conditions: Preemergence; for Plant response rating, Wheat: visual rating on scale 0 (no effect) to 100 (complete control), 13 to 15 d; for plant injury at 62 g/ha: 62 g ai/ha
Method in brief: as §2

soybean (Glycine max) = assay: as above; conditions: Preemergence; for plant injury at 62 g/ha: 62 g ai/ha; for Plant response rating, Soybean: visual rating on scale 0 (no effect) to 100 (complete control), 13 to 15 d
Method in brief: as §2

[8] = system: johnsongrass (Sorghum halepense); assay: as above; conditions: Preemergence; for Plant response rating, Johnsongrass: visual rating on scale 0 (no effect) to 100 (complete control), 13 to 15 d; for pest or weed control at 31 g/ha: 31 g ai/ha; for pest or weed control at 62 g/ha: 62 g ai/ha
Method in brief: as §2

[9] = Digitaria sanguinalis, pre-emergence, Crabgrass, Large, read-out: Plant response rating
[10] = Zea mays, pre-emergence, Corn, read-out: Plant response rating
[11] = Alopecurus myosuroides, pre-emergence, Blackgrass, read-out: Plant response rating
[12] = Triticum aestivum, pre-emergence, Wheat, read-out: Plant response rating
[13] = Glycine max, pre-emergence, Soybean, read-out: Plant response rating
[14] = Sorghum halepense, pre-emergence, Johnsongrass, read-out: Plant response rating

SMILES	pest or weed control at 125 g/ha ([1]; post-emergence, Postemergence)	pest or weed control at 500 g/ha ([1]; post-emergence, Postemergence)	pest or weed control at 125 g/ha ([1]; pre-emergence, Preemergence)	pest or weed control at 500 g/ha ([1]; pre-emergence, Preemergence)	pest or weed control at 125 g/ha ([2]; post-emergence, Postemergence)	pest or weed control at 500 g/ha ([2]; post-emergence, Postemergence)	pest or weed control at 125 g/ha ([2]; pre-emergence, Preemergence)	pest or weed control at 500 g/ha ([2]; pre-emergence, Preemergence)	plant injury at 125 g/ha ([3]; post-emergence, Postemergence)	plant injury at 500 g/ha ([3]; post-emergence, Postemergence)	plant injury at 125 g/ha ([3]; pre-emergence, Preemergence)	plant injury at 500 g/ha ([3]; pre-emergence, Preemergence)	pest or weed control at 31 g/ha [4, 9]	pest or weed control at 62 g/ha [4, 9]	plant injury at 31 g/ha (corn (Zea mays); [10])	plant injury at 62 g/ha (corn (Zea mays); [10])	Plant response rating ([5]; 31 g ai/ha)	Plant response rating ([5]; 62 g ai/ha)	pest or weed control at 31 g/ha [6, 11]	pest or weed control at 62 g/ha [6, 11]	other results
CCOc1cc(=O)n(-c2ccc(F)cc2)nc1C(O)c1ccnc(C(F)(F)F)c1 (stereo not shown) [Compound 23, 5-ethoxy-2-(4-fluorophenyl)-6-[hydroxy[2-(trifluoromethyl)-4-pyridinyl]methyl]-3(2H)-pyridazinone]	100%	100%	100%	100%	60%	100%	100%	100%	80%	90%	0%	90%	65%	100%	5%	15%	25	25	50%	5%	Plant response rating, Crabgrass, Large ([4]; 8 g ai/ha): 5; Plant response rating, Crabgrass, Large ([4]; 16 g ai/ha): 50; Plant response rating, Corn (corn (Zea mays); 8 g ai/ha): 0; Plant response rating, Corn (corn (Zea mays); 16 g ai/ha): 5; Plant response rating, Barnyardgrass ([5]; 8 g ai/ha): 0; Plant response rating, Barnyardgrass ([5]; 16 g ai/ha): 0; Plant response rating, Blackgrass ([6]; 8 g ai/ha): 0; Plant response rating, Blackgrass ([6]; 16 g ai/ha): 0; Plant response rating, Wheat ([7]; 8 g ai/ha): 0; Plant response rating, Wheat ([7]; 16 g ai/ha): 0; plant injury at 62 g/ha [7, 12]: 10%; plant injury at 62 g/ha (soybean (Glycine max); [13]): 25%; Plant response rating, Soybean (soybean (Glycine max); 8 g ai/ha): 0; Plant response rating, Soybean (soybean (Glycine max); 16 g ai/ha): 0; Plant response rating, Johnsongrass ([8]; 8 g ai/ha): 0; Plant response rating, Johnsongrass ([8]; 16 g ai/ha): 5; pest or weed control at 31 g/ha [8, 14]: 5%; pest or weed control at 62 g/ha [8, 14]: 10%
CCOc1cc(=O)n(-c2ccc(F)cc2)nc1Cc1ccnc(C(F)(F)F)c1 [Compound 25, 5-ethoxy-2-(4-fluorophenyl)-6-[[2-(trifluoromethyl)-4-pyridinyl]methyl]-3 (2H)-pyridazinone]	100%	100%	100%	100%	80%	90%	100%	100%	60%	70%	30%	60%	100%	100%	10%	30%	35	85	40%	85%	pest or weed control at 125 g/ha ([4]; Digitaria sanguinalis, pre-emergence, Crabgrass, Large, 125 g ai/ha, read-out: Plant response rating): 100%; pest or weed control at 250 g/ha ([4]; Digitaria sanguinalis, pre-emergence, Crabgrass, Large, 250 g ai/ha, read-out: Plant response rating): 100%; plant injury at 125 g/ha (corn (Zea mays); Zea mays, pre-emergence, Corn, 125 g ai/ha, read-out: Plant response rating): 35%; plant injury at 250 g/ha (corn (Zea mays); Zea mays, pre-emergence, Corn, 250 g ai/ha, read-out: Plant response rating): 45%; Plant response rating ([5]; 125 g ai/ha): 95; Plant response rating ([5]; 250 g ai/ha): 98; pest or weed control at 125 g/ha ([6]; Alopecurus myosuroides, pre-emergence, Blackgrass, 125 g ai/ha, read-out: Plant response rating): 90%; pest or weed control at 250 g/ha ([6]; Alopecurus myosuroides, pre-emergence, Blackgrass, 250 g ai/ha, read-out: Plant response rating): 90%; plant injury at 62 g/ha [7, 12]: 40%; plant injury at 125 g/ha ([7]; Triticum aestivum, pre-emergence, Wheat, 125 g ai/ha, read-out: Plant response rating): 50%; plant injury at 250 g/ha ([7]; Triticum aestivum, pre-emergence, Wheat, 250 g ai/ha, read-out: Plant response rating): 70%; plant injury at 62 g/ha (soybean (Glycine max); [13]): 20%; plant injury at 125 g/ha (soybean (Glycine max); Glycine max, pre-emergence, Soybean, 125 g ai/ha, read-out: Plant response rating): 35%; plant injury at 250 g/ha (soybean (Glycine max); Glycine max, pre-emergence, Soybean, 250 g ai/ha, read-out: Plant response rating): 65%; pest or weed control at 31 g/ha [8, 14]: 65%; pest or weed control at 62 g/ha [8, 14]: 75%; pest or weed control at 125 g/ha ([8]; Sorghum halepense, pre-emergence, Johnsongrass, 125 g ai/ha, read-out: Plant response rating): 90%; pest or weed control at 250 g/ha ([8]; Sorghum halepense, pre-emergence, Johnsongrass, 250 g ai/ha, read-out: Plant response rating): 98%
